Take `CCCC#N` [n-Butyronitrile]: the flash point was 26.00 °C.
Same read-out and setting: the figure for `CCNc1ccccc1` [n-Ethyl aniline] is 85.00 °C; for `CCCCCCO` [n-Hexanol] it is 60.00 °C.
The same measure, in the same setting: the figure for `CCCO` [n-Propyl alcohol] is 15.00 °C; for `Cc1ccccc1O` [o-Cresol] it is 81.00 °C; for `Clc1ccccc1Cl` [o-Dichlorobenzene] it is 66.00 °C.
The same measure, in the same setting: then `O=[N+]([O-])c1ccccc1-c1ccccc1` [o-Nitrobiphenyl], with 143.00 °C; and `Oc1ccccc1-c1ccccc1` [o-Phenyl phenol], with 124.00 °C.
`Cc1ccccc1C` [o-Xylene] registered a flash point of 32.00 °C.
The same measure, in the same setting: the figure for `Oc1ccc(Cl)cc1` [p-Chlorophenol] is 121.00 °C.
Compound `Cc1ccc(C(C)C)cc1` [p-Cymene] yielded a flash point of 47.00 °C.
The same measure, in the same setting: then `C=C(C)C1CC=C(C)CC1` (stereo unspecified) [p-Mentha-1,8-diene], with 45.00 °C; and `Cc1ccc([N+](=O)[O-])cc1` [p-Nitrotoluene], with 106.00 °C.
Same read-out and setting: then `Nc1ccc(N)cc1` [p-Phenylenediamine], with 156.00 °C; and `CCC(C)OC(C)=O` (stereo unspecified) [sec-Butyl acetate], with 31.00 °C; and `CC(C)(C)OOC(=O)c1ccccc1` [tert-Butyl perbenzoate], with 88.00 °C.

The source holds these as a separate data set.
Regarding `Cc1ccc(C)c(C)c1C` [1,2,3,4-TETRAMETHYLBENZENE], the flash point amounted to 68.0 °C.
On the same count and under the same terms, then `Cc1ccc(C)c(C)c1C` [1,2,3,4-Tetramethylbenzene], with 74.0 °C; and `Cc1cccc(C)c1C` [1,2,3-TRIMETHYLBENZENE], with 44.0 °C.
On the same count and under the same terms, the figure for `Cc1cccc(C)c1C` [1,2,3-Trimethylbenzene] is 51.0 °C; for `Cc1cc(C)c(C)cc1C` [1,2,4,5-TETRAMETHYLBENZENE] it is 55 °C; for `Cc1cc(C)c(C)cc1C` [1,2,4,5-Tetramethylbenzene] it is 73.0 °C.
Same read-out and setting: the figure for `COCC(C)OC` (stereo unspecified) [1,2-DIMETHOXYPROPANE] is 0.6 °C; for `COCC(C)OC` (stereo unspecified) [1,2-Dimethoxypropane] it is -0.0 °C; for `NCCCN` [1,3-Diaminopropane] it is 49.0 °C.
`CCc1cccc(CC)c1` [1,3-Diethylbenzene]: the flash point stood at 56 °C.
Take `C=CC(C)C` [1-Butene, 3-methyl-]: the flash point was -55.9 °C.
The same measure, in the same setting: the figure for `CCCCOCC(C)O` (stereo unspecified) [1-Butoxy-2-propanol] is 59.0 °C.
On the same count and under the same terms, then `C=CCCCCCCCCCCCCCC` [1-HEXADECENE], with 132.0 °C; and `CCCCCC=O` [1-HEXANAL], with 27 °C; and `C=C(C)CCCC` [1-Hexene, 2-methyl-], with -6.0 °C.
On the same count and under the same terms, then `C=CC(C)CCC` (stereo unspecified) [1-Hexene, 3-methyl-], with -6.0 °C; and `C=CCCCCCCC` [1-NONENE], with 22 °C; and `C=CCCCCCCC` [1-Nonene], with 26.0 °C.
In turn, `CCCCCCCCO` [1-OCTANOL] gave a flash point of 84 °C.
In turn, `C=CCCCCCC` [1-OCTENE] registered a flash point of 8 °C.
Still for that read-out and setting: then `C=CCCCCCCCCCCCCCCCC` [1-Octadecene], with 148.0 °C; and `CCCCCCCCO` [1-Octanol], with 86.6 °C; and `C=CCCCCCC` [1-Octene], with 11.5 °C.
Take `CCCO` [1-PROPANOL]: the flash point was found to be 18 °C.
Same read-out and setting: then `CCC(C)CCO` (stereo unspecified) [1-Pentanol, 3-methyl-], with 58.0 °C; and `CCCCCCc1ccccc1` [1-Phenylhexane], with 83.0 °C; and `CCCCCCCCCCCCCCO` [1-TETRADECANOL], with 143 °C.
Same read-out and setting: the figure for `CCCCCCCCCCCCCCO` [1-Tetradecanol] is 148.0 °C; for `Cc1cccc(O)c1C` [2,3-Dimethylphenol] it is 95.0 °C.
Take `CC(C)=C(C)C` [2-Butene, 2,3-dimethyl-]: the flash point was -16.0 °C.
The same measure, in the same setting: the figure for `CC(C)Cl` [2-Chloropropane] is -34.9 °C; for `CCC(CC)CO` [2-ETHYL-1-BUTANOL] it is 57 °C; for `CCCCCC(C)O` (stereo unspecified) [2-Heptanol] it is 59.0 °C.
Still for that read-out and setting: then `CC(=O)CCC(C)C` [2-Hexanone, 5-methyl-], with 35.0 °C.
Still for that read-out and setting: then `CCCCC(C)=O` [2-Hexanone], with 23.0 °C; and `CCCCCCCC(C)=O` [2-NONANONE], with 64.0 °C.
`CCCCCCCC(C)=O` [2-Nonanone] registered a flash point of 72.4 °C.
The same measure, in the same setting: the figure for `CCCCCCC(C)=O` [2-OCTANONE] is 51.0 °C.
On the same count and under the same terms, the figure for `CCCCCCC(C)=O` [2-Octanone] is 56.0 °C; for `CCC(C)C(C)=O` (stereo unspecified) [2-Pentanone, 3-methyl-] it is 12.0 °C; for `CCC(C)CC(C)(C)CC` (stereo unspecified) [3,3,5-TRIMETHYLHEPTANE] it is 28 °C.
In turn, `CCC(C)CC(C)(C)CC` (stereo unspecified) [3,3,5-Trimethylheptane] came in with a flash point of 31 °C.
Still for that read-out and setting: the figure for `CCCCC(=O)CC` [3-Heptanone] is 37.0 °C.
`CC(=O)C(C)C` [3-Methyl-2-butanone] registered a flash point of -1.0 °C.
On to `CCCCCCC(=O)CC` [3-Nonanone], for which the flash point amounted to 66.0 °C.
Still for that read-out and setting: then `CCC(=O)C(C)C` [3-Pentanone, 2-methyl-], with 13.0 °C.
With `CCC(=O)CC` [3-Pentanone], the flash point is 7.0 °C.
The compound `CCCC(=O)CCC` [4-HEPTANONE] showed a flash point of 48.0 °C.
Still for that read-out and setting: then `CCCC(=O)CCC` [4-Heptanone], with 34.0 °C.
Same read-out and setting: the figure for `CCCCC(=O)CCCC` [5-Nonanone] is 65.0 °C; for `C=CCOC(C)=O` [ALLYL ACETATE] it is 22.2 °C.
The same measure, in the same setting: then `CCCCCCCCOC(C)=O` [Acetic acid octyl ester], with 83.0 °C.
As for `CCCCCCCc1ccccc1` [Benzene, heptyl-], the flash point was determined as 97.5 °C.
On the same count and under the same terms, the figure for `CCCCCc1ccccc1` [Benzene, pentyl-] is 66.0 °C; for `CCCC#N` [Butanenitrile] it is 18.0 °C.
Still for that read-out and setting: the figure for `CCCCOC(=O)CCC` [Butanoic acid, butyl ester] is 50.0 °C.
In turn, `CCCCOC(C)=O` [Butyl acetate] came in with a flash point of 25.0 °C.
In the case of `CCCC=O` [Butyraldehyde], the flash point is -11.0 °C.
As for `CCCC(=O)O` [Butyric acid], the flash point stood at 72.0 °C.
On the same count and under the same terms, the figure for `NC1CCCCC1` [Cyclohexanamine] is 26.5 °C; for `C[C@H]1CC[C@@H](C)CC1` [Cyclohexane, 1,4-dimethyl-, cis-] it is 11.2 °C; for `CCC1CCCCC1` [Cyclohexane, ethyl-] it is 18.0 °C.
Same read-out and setting: the figure for `CCCCCCCCCC` [Decane] is 49.8 °C; for `CCCCCCCCCCO` [Decyl alcohol] it is 104.0 °C.
On the same count and under the same terms, then `c1ccc(Oc2ccccc2)cc1` [Diphenyl ether], with 115.0 °C; and `CC(Cl)Cl` [Ethane, 1,1-dichloro-], with -10.0 °C.
The compound `CCOC(C)OCC` [Ethane, 1,1-diethoxy-] showed a flash point of 13.0 °C.
Take `CCCCCC(C)(C)C` [Heptane, 2,2-dimethyl-]: the flash point is 19.0 °C.
Still for that read-out and setting: the figure for `CCCCC(C)CC` (stereo unspecified) [Heptane, 3-methyl-] is 6.0 °C; for `CCCC(C)CCC` [Heptane, 4-methyl-] it is 6.0 °C; for `CCCCCCCCCCCCCCCC` [Hexadecane] it is 134.0 °C.
Same read-out and setting: the figure for `CCC(C)CC(C)C` (stereo unspecified) [Hexane, 2,4-dimethyl-] is 3.0 °C; for `CC(C)CCC(C)C` [Hexane, 2,5-dimethyl-] it is 2.0 °C; for `CCC(C)C(C)CC` (stereo unspecified) [Hexane, 3,4-dimethyl-] it is 7.5 °C.
On the same count and under the same terms, the figure for `C=CC(=O)OCC(C)C` [Isobutyl acrylate] is 31.2 °C.
Regarding `CCCCCCCCCCCC(=O)O` [Lauric acid], the flash point was found to be 164 °C.
Same read-out and setting: then `COC(C)=O` [METHYL ACETATE], with -10.0 °C.
Same read-out and setting: the figure for `Cc1cc(C)cc(C)c1` [Mesitylene] is 44.5 °C; for `CCCCCCCCCOC(C)=O` [NONYL ACETATE] it is 99.0 °C.
On the same count and under the same terms, the figure for `CCCCCCCCCCCCCCCCCCC` [Nonadecane] is 168 °C; for `CCCCCCCC(C)C` [Nonane, 2-methyl-] it is 41 °C; for `CC(C)CCCCC(C)C` [Octane, 2,7-dimethyl-] it is 37.8 °C.
The compound `CCCCCCC(C)C` [Octane, 2-methyl-] yielded a flash point of 26.0 °C.
The compound `CCCCCC(C)CC` (stereo unspecified) [Octane, 3-methyl-] showed a flash point of 25.5 °C.
On the same count and under the same terms, then `O=C(O)CCCCCC(=O)O` [PIMELIC acid], with 215 °C.
On the same count and under the same terms, the figure for `CCCCCCl` [Pentane, 1-chloro-] is 11.0 °C; for `CCC(C)(C)C(C)(C)C` [Pentane, 2,2,3,3-tetramethyl-] it is 21.5 °C; for `CCC(CC)(CC)CC` [Pentane, 3,3-diethyl-] it is 21 °C.
Compound `Cc1cccc(O)c1` [Phenol, 3-methyl-] came in with a flash point of 86.0 °C.
In turn, `O=C(O)CCCCCC(=O)O` [Pimelic acid] displayed a flash point of 150.0 °C.
The same measure, in the same setting: then `CC(=O)C(C)(C)C` [Pinacolone], with 9.0 °C.
`CCC#N` [Propanenitrile] came in with a flash point of 6.0 °C.
On to `CCC=O` [Propionaldehyde], for which the flash point is -29.9 °C.
Compound `Cc1cccc(C)n1` [Pyridine, 2,6-dimethyl-] gave a flash point of 33 °C.
For `Cc1cccnc1` [Pyridine, 3-methyl-], the flash point came out at 36.0 °C.

(Values after a flash point compilation (Sun et al. 2020).)
